Reference: patent US9290427B2, “Anti-invasive compounds” (Universiteit Gent, priority 2012, dated 2016)
Like-named read-outs stand apart in the source and are kept apart here.

What was measured:
[1] = tested on: MCF-7/6 mammary carcinoma cells; experiment: chick heart invasion assay; type: cell-based, human; set-up: unit not given here; settings: for anti-invasive activity class act.: validation set, in vitro; for Actual in vitro activity class: compounds 37-51, Table 11; for Actual class: training set compounds 37-51, class = log cmin, lowest concentration with invasion grade I or II
Description: “Anti-invasive” or “anti-invasive activity” is the ability to inhibit the invasiveness of tumor cells. Invasion by tumor cells is defined as the progressive occupation and destruction of their environment, and is the result of matrix degradation and directional cell motility. Anti-invasive activity of a compound is the ability to inhibit or block invasion, and can be assessed by counting the number of invading cells, by the depth of their invasion and/or by the amount of environmental destruction. Many assays in vitro can be applied to test for anti-invasive activity (for a complete list see Bracke et al. 2008). The three most popular ones are: • Chick heart invasion assay (Bracke et al., 2001, see details below). The cut-off value is between grade II (non-invasive) and grade III (invasive). […] Collagen gels, prepared on the bottom of plastic wells are covered with a test cell suspension, and incubated with liquid culture medium for 24 h. Invasion is evaluated with an inverted phase-contrast microscope, and is based on the percentage of cells showing extensions in the gel. […] Matrigel is a mixture of basement membrane components, and is applied as a semi-solid layer on top a filter with pores allowing the transgression of cells. The test cell suspension is seeded on top of the gel, and incubated for 1 day in a two-compartment chamber system. Invasion is then evaluated via the percentage of cells that are attached to the lower side of the filter.
In the chick heart invasion assay cancer cells are confronted with a fragment of normal tissue, so as not to neglect the contribution of the host tissue in the micro-ecosystem that governs tumor behavior. As such, precultured heart tissue fragments (PHFs), dissected from 9-day-old chicken embryos, may be confronted with aggregates of human invasive MCF-7/6 mammary carcinoma cells in the presence of a certain concentration of a test compound. After eight days, the interaction between the cancer cells and the PHF is evaluated histologically and classified along a 5-grades subjective scale (Bracke et al., 2001). Grades III and IV are typical for invasion, while grades 0, I and II correspond to absence of invasion. Compounds that inhibit invasion of confronting cancer cells i.e. from III/IV to 0/I/II, are determined as anti-invasive. Possible alternative assays generally known in the art are the type I collagen invasion assay, wound healing assay and the matrigel invasion assay.
“Anti-invasive” refers to the ability to inhibit invasion of the tumor or cancer cell into surrounding tissue (within or outside the organ of origin). […] This screening method confronts cancer cells with a fragment of normal tissue, so as not to neglect the contribution of the host tissue in the micro-ecosystem that governs tumor behavior. The interaction between the cancer cells and the normal tissue is evaluated histologically and classified along a 5-grades subjective scale. Grades III and IV are typical for invasion, while grades 0, I and II correspond to absence of invasion. Compounds that inhibit invasion of confronting cancer cells i.e. from III/IV to 0/I/II, are determined as anti-invasive. Possible alternative assays generally known in the art are the type I collagen invasion assay and the Matrigel invasion assay.
The potency of these molecules had been evaluated by means of the chick heart invasion assay, as described herein before.

[2] = tested on: MCF-7/6 mammary carcinoma cells; set-up: unit not given here; settings: training set compounds 1-34, Indo-Belgian screening program; class = log cmin, lowest concentration with invasion grade I or II; cited from earlier work

Compound	anti-invasive activity class act. [1]	Actual in vitro activity class [1]	Actual class [1]	other results
O=C(/C=C/c1ccco1)c1ccccc1 [Compound 72, (2E)-3-Furan-2-yl-1-phenylpropenone]	>=2 (about 100)			
COc1cccc(/C=C/C(=O)c2cc3c(cc2O)OC(C)(C)C(O)C3)c1OC (stereo not drawn) [Compound 9, (2E)-1-(3,7-Dihydroxy-2,2-dimethylchroman-6-yl)-3-(2,3-dimethoxy-phenyl)propenone]				Actual class [2]: 1 (about 10)
CC(C)=CCOc1ccc(C(=O)/C=C/c2ccc(F)cc2)cc1 [Compound 62, (2E)-3-(4-Fluorophenyl)-1-[4-(3-methylbut-2-enyloxy)phenyl]propenone]	>=2 (about 100)			
COc1ccc(C(=O)C=Cc2ccco2)cc1 [Compound 74, 3-Furan-2-yl-1-(4-methoxyphenyl)propenone]	2 (about 100)			
O=C(C=Cc1ccco1)c1ccco1 [Compound 70, 1,3-Difuran-2-yl-propenone]	−1 (about 0.1)			
COc1cc(O)c(CC=C(C)C)c(O)c1C(=O)/C=C/c1ccc(O)cc1 [Compound 27, (2E)-3-(4-hydroxyphenyl)-1-(2′,4′-dihydroxy-6′-methoxy-3′-(3-methylbut-2-enyl)phenyl)propenone]				Actual class [2]: 0 (about 1)
COc1cc(OC)c(C(=O)/C=C/c2cccc(Oc3ccccc3)c2)cc1CC=C(C)C [Compound 34, (2E)-3-(3-phenoxyphenyl)-1-(2′,4′-dimethoxy-5′-(3-methylbut-2-enyl)phenyl)propenone]				Actual class [2]: 3 (>100)
COc1cc(OC)c(C(=O)/C=C/c2ccccc2)c(O)c1CC=C(C)C [Compound 11, (2E)-3-phenyl-1-(2′-hydroxy-4′,6′-dimethoxy-3′-(3-methylbut-2-enyl)phenyl)propenone]				Actual class [2]: 2 (about 100)
COc1ccc(C(=O)/C=C/c2ccc(F)cc2)cc1 [Compound 48, (2E)-3-(4-Fluorophenyl)-1-(4-methoxyphenyl)propenone]		0 (about 1)	0 (about 1)	
CC1(C)CCc2c(O)c(C(=O)/C=C/c3cccc([N+](=O)[O-])c3)c3c(c2O1)CCC(C)(C)O3 [Compound 88, (2E)-1-(5-Hydroxy-2,2,8,8-tetramethyl-3,4,9,10-tetrahydro-2H,8H-pyrano[2,3-f]chromen-6-yl)-3-(3-nitro-phenyl)propenone]	≧3 (>100)			
O=C(/C=C/c1ccc(F)cc1)c1ccc(O)cc1 [Compound 58, (2E)-3-(4-Fluorophenyl)-1-(4-hydroxyphenyl)propenone]	1 (about 10)			
CC(C)=CCn1cc(C(=O)/C=C/c2ccc(Cl)cc2)c2ccccc21 [Compound 85, (2E)-3-(4-Chlorophenyl)-1-[1-(3-methylbut-2-enyl)-1H-indol-3-yl]propenone]	≧2 (about 100)			
COc1cccc(OC)c1C(=O)/C=C/c1ccco1 [Compound 76, (2E)-3-(2-Furanyl)-1-(2,6-dimethoxyphenyl)propenone]	−1 (about 0.1)			
(2E)-1,3-diphenylpropenone [Compound 37]		1 (about 10)	1 (about 10)	
COc1ccc(C(=O)/C=C/c2cccc(F)c2)cc1 [Compound 54, (2E)-3-(3-Fluorophenyl)-1-(4-methoxyphenyl)propenone]	1 (about 10)			
COc1cc(O)c(C(=O)/C=C/c2cccc([N+](=O)[O-])c2)cc1C(c1ccccc1)c1ccccc1 [Compound 89, (2E)-1-(5-Benzhydryl-2-hydroxy-4-methoxy-phenyl)-3-(3-nitro-phenyl)-propenone]	≧3 (>100)			
COc1ccc(C(=O)/C=C/c2cc(OC)c(OC)cc2OC)cc1 [Compound 44, (2E)-3-(2,4,5-Trimethoxyphenyl)-1-(4-methoxyphenyl)propenone]		0 (about 1)	0 (about 1)	
O=C(/C=C/c1cc2ccccc2o1)c1ccc(F)cc1 [Compound 78, (2E)-3-(2-Benzofuranyl)-1-(4-fluorphenyl)propenone]	2 (about 100)			

Compound	anti-invasive activity class act. [1]	Actual in vitro activity class [1]	Actual class [1]	other results
COc1ccc(C(=O)/C=C/c2cccc(OC)c2)cc1 [Compound 41, (2E)-3-(3-Methoxyphenyl)-1-(4-methoxyphenyl)propenone]		0 (about 1)	0 (about 1)	
COc1cc(C(=O)/C=C/c2ccco2)cc(OC)c1OC [Compound 75, (2E)-3-(2-Furanyl)-1-(3,4,5-trimethoxyphenyl)propenone]	−1 (about 0.1)			
COc1cc(OC)c(/C=C/C(=O)c2c(OC)cccc2OC)c(OC)c1 [Compound 47, (2E)-3-(2,4,6-Trimethoxyphenyl)-1-(2,6-dimethoxyphenyl)propenone]		0 (about 1)	0 (about 1)	
O=C(C=Cc1ccc(F)cc1)c1ccco1 [Compound 68, 1-(2-Furyl)-3-(4-fluorophenyl)propenone]	1 (about 10)			
O=C(/C=C/c1ccoc1)c1ccc(F)cc1 [Compound 77, (2E)-3-(3-Furanyl)-1-(4-fluorophenyl)propenone]	−1 (about 0.1)			
O=C(/C=C/c1cccc(F)c1)c1ccc(F)cc1 [Compound 53, (2E)-3-(3-Fluorophenyl)-1-(4-fluorophenyl)propenone]	−1 (about 0.1)			
COc1ccc(C(=O)/C=C/c2cc3ccccc3o2)cc1 [Compound 79]	2 (about 100)			
O=C(/C=C/c1ccc(F)cc1)c1ccc(F)cc1 [Compound 50, (2E)-3-(4-Fluorophenyl)-1-(4-fluorophenyl)propenone]		1 (about 10)	1 (about 10)	
COc1ccc(C(=O)/C=C/c2ccccc2F)cc1 [Compound 55, (2E)-3-(2-Fluorophenyl)-1-(4-methoxyphenyl)propenone]	1 (about 10)			
COc1cc(OC)c(C(=O)/C=C/c2cc(OC)c(OC)cc2OC)c(OC)c1 [Compound 42, (2E)-3-(2,4,5-Trimethoxyphenyl)-1-(2,4,6-trimethoxyphenyl)propenone]		1 (about 10)	1 (about 10)	
COc1ccc(/C=C/C(=O)c2ccccc2)cc1 [Compound 39, (2E)-3-(4-Methoxyphenyl)-1-phenylpropenone]		1 (about 10)	1 (about 10)	
C=CCn1cc(C(=O)/C=C/c2ccc(Cl)cc2)c2ccccc21 [Compound 84]	≧2 (about 100)			
COc1cc(OC)c(OC)cc1/C=C/C(=O)c1c(OC)cccc1OC [Compound 46, (2E)-3-(2,4,5-Trimethoxyphenyl)-1-(2,6-dimethoxyphenyl)propenone]		1 (about 10)	1 (about 10)	
COc1ccc(C(=O)/C=C/c2c(OC)cc(OC)cc2OC)cc1 [Compound 45, (2E)-1-(4-methoxyphenyl)-3-(2,4,6-trimethoxyphenyl)prop-2-en-1-one]		−1 (about 0.1)	−1 (about 0.1)	
O=C(/C=C/c1ccco1)c1ccc(F)cc1 [Compound 73, (2E)-3-(2-Furanyl)-1-(4-fluorophenyl)propenone]	2 (about 100)			
COc1ccc(C(=O)/C=C/c2ccccc2)cc1 [Compound 38, (2E)-3-phenyl-1-(4-methoxyphenyl)propenone]		1 (about 10)	1 (about 10)	
COc1ccc(C(=O)/C=C/c2ccc(Cl)cc2)cc1 [Compound 52, (2E)-3-(4-chlorophenyl)-1-(4-methoxyphenyl)prop-2-en-1-one]	−2 (about 0.01)			
COc1ccc(/C=C/C(=O)c2ccc(OC)cc2)cc1 [Compound 40, (2E)-3-(4-Methoxyphenyl)-1-(4-methoxyphenyl)propenone]		1 (about 10)	1 (about 10)	
